Experiments:
Assay type in all cases: in vivo
[1] = system: barnyardgrass (Echinochloa crus-galli); experiment: Test G Pre-Emergence Protocol; details: Echinochloa crus-galli, pre-emergence, 312 h, evaluated after 13 days; for pest or weed control at 15.625 g/ha: 15.625 g ai/ha, read-out: Barnyard grass damage rating (100=total damage to plant; 0=no damage to plant); for pest or weed control at 62.5 g/ha: 62.5 g ai/ha, 100=total damage to plant, 0=no damage to plant, read-out: plant damage rating, Barnyardgrass; for pest or weed control at 250 g/ha: 250 g ai/ha, read-out: Barnyardgrass damage rating (100=total damage to plant; 0=no damage to plant)
Summary of the method: (§1)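 One day after sowing, pots are treated with a spray of test compound formulated in acetone/water 50:50 plus 0.5% Tween 20, giving 15.625, 62.5 or 250 g/ha. Evaluation on a 0–100 damage scale follows 13 days of glasshouse growth.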

corn (Zea mays) [2] = experiment: Test G Pre-Emergence Protocol; details: Zea mays, pre-emergence, 312 h, evaluated after 13 days; for plant injury at 15.625 g/ha: 15.625 g ai/ha; for plant injury at 15.625 g/ha / plant injury at 250 g/ha: read-out: Corn damage rating (100=total damage to plant; 0=no damage to plant); for plant injury at 62.5 g/ha: 62.5 g ai/ha, 100=total damage to plant, 0=no damage to plant, read-out: plant damage rating, Corn; for plant injury at 250 g/ha: 250 g ai/ha
Summary of the method: as §1

[3] = system: giant foxtail (Setaria faberi); experiment: Test G Pre-Emergence Protocol; details: Setaria faberi, pre-emergence, 312 h, evaluated after 13 days; for pest or weed control at 15.625 g/ha: 15.625 g ai/ha; for pest or weed control at 15.625 g/ha / pest or weed control at 250 g/ha: read-out: Foxtail, Giant damage rating (100=total damage to plant; 0=no damage to plant); for pest or weed control at 62.5 g/ha: 62.5 g ai/ha, 100=total damage to plant, 0=no damage to plant, read-out: plant damage rating, Foxtail, Giant; for pest or weed control at 250 g/ha: 250 g ai/ha
Summary of the method: as §1

[4] = system: ivy-leaved morning glory (Ipomoea hederacea); experiment: Test G Pre-Emergence Protocol; details: Ipomoea, pre-emergence, 312 h, evaluated after 13 days; for pest or weed control at 15.625 g/ha: 15.625 g ai/ha, read-out: Morning-glory, Ivy-leaved damage rating (100=total damage to plant; 0=no damage to plant); for pest or weed control at 62.5 g/ha: 62.5 g ai/ha, 100=total damage to plant, 0=no damage to plant, read-out: plant damage rating, Morningglory, Ivy-leaved; for pest or weed control at 250 g/ha: 250 g ai/ha, read-out: Morningglory, Ivy-leaved damage rating (100=total damage to plant; 0=no damage to plant)
Summary of the method: as §1

[5] = system: redroot pigweed (Amaranthus retroflexus); experiment: Test G Pre-Emergence Protocol; details: Amaranthus retroflexus, pre-emergence, 312 h, evaluated after 13 days; for pest or weed control at 15.625 g/ha: 15.625 g ai/ha; for pest or weed control at 15.625 g/ha / pest or weed control at 250 g/ha: read-out: Pigweed, Redroot damage rating (100=total damage to plant; 0=no damage to plant); for pest or weed control at 62.5 g/ha: 62.5 g ai/ha, 100=total damage to plant, 0=no damage to plant, read-out: plant damage rating, Pigweed, Redroot; for pest or weed control at 250 g/ha: 250 g ai/ha
Summary of the method: as §1

[6] = system: velvetleaf (Abutilon theophrasti); experiment: Test G Pre-Emergence Protocol; details: Abutilon theophrasti, pre-emergence, 312 h, evaluated after 13 days; for pest or weed control at 15.625 g/ha: 15.625 g ai/ha; for pest or weed control at 15.625 g/ha / pest or weed control at 250 g/ha: read-out: Velvetleaf damage rating (100=total damage to plant; 0=no damage to plant); for pest or weed control at 62.5 g/ha: 62.5 g ai/ha, 100=total damage to plant, 0=no damage to plant, read-out: plant damage rating, Velvetleaf; for pest or weed control at 250 g/ha: 250 g ai/ha
Summary of the method: as §1

[7] = system: barnyardgrass (Echinochloa crus-galli); experiment: Test G Post-Emergence Protocol; details: Echinochloa crus-galli, post-emergence, 312 h; for pest or weed control at 15.625 g/ha: 15.625 g ai/ha, evaluated after 13 days (100=total damage to plant; 0=no damage to plant), read-out: Barnyardgrass damage rating; for pest or weed control at 62.5 g/ha: 62.5 g ai/ha, read-out: Barnyardgrass damage rating (100=total damage to plant; 0=no damage to plant); for pest or weed control at 62.5 g/ha / pest or weed control at 250 g/ha: evaluated after 13 days; for pest or weed control at 250 g/ha: 250 g ai/ha, read-out: damage to plant, Barnyardgrass (100=total damage to plant; 0=no damage to plant)
Summary of the method: (§2)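 Sow in soil; grow 8 d (24/16 °C, 14 h light, 65% humidity); spray 15.625/62.5/250 g/ha in acetone:water 50:50 + 0.5% Tween 20; grow on, water twice daily; score damage 0–100 at 13 d.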

corn (Zea mays) [8] = experiment: Test G Post-Emergence Protocol; details: Zea mays, post-emergence, 312 h; for plant injury at 15.625 g/ha: 15.625 g ai/ha, evaluated after 13 days (100=total damage to plant; 0=no damage to plant), read-out: Corn damage rating; for plant injury at 62.5 g/ha: 62.5 g ai/ha, read-out: Corn damage rating (100=total damage to plant; 0=no damage to plant); for plant injury at 62.5 g/ha / plant injury at 250 g/ha: evaluated after 13 days; for plant injury at 250 g/ha: 250 g ai/ha, read-out: damage to plant, Corn (100=total damage to plant; 0=no damage to plant)
Summary of the method: as §2

[9] = system: giant foxtail (Setaria faberi); experiment: Test G Post-Emergence Protocol; details: Setaria faberi, post-emergence, 312 h; for pest or weed control at 15.625 g/ha: 15.625 g ai/ha, evaluated after 13 days (100=total damage to plant; 0=no damage to plant), read-out: Foxtail, Giant damage rating; for pest or weed control at 62.5 g/ha: 62.5 g ai/ha, read-out: Foxtail, Giant damage rating (100=total damage to plant; 0=no damage to plant); for pest or weed control at 62.5 g/ha / pest or weed control at 250 g/ha: evaluated after 13 days; for pest or weed control at 250 g/ha: 250 g ai/ha, read-out: damage to plant, Foxtail, Giant (100=total damage to plant; 0=no damage to plant)
Summary of the method: as §2

[10] = system: ivy-leaved morning glory (Ipomoea hederacea); experiment: Test G Post-Emergence Protocol; details: Ipomoea, post-emergence, 312 h; for pest or weed control at 15.625 g/ha: 15.625 g ai/ha, evaluated after 13 days (100=total damage to plant; 0=no damage to plant), read-out: Morningglory, Ivy-leaved damage rating; for pest or weed control at 62.5 g/ha: 62.5 g ai/ha, read-out: Morningglory, Ivy-leaved damage rating (100=total damage to plant; 0=no damage to plant); for pest or weed control at 62.5 g/ha / pest or weed control at 250 g/ha: evaluated after 13 days; for pest or weed control at 250 g/ha: 250 g ai/ha, read-out: damage to plant, Morningglory, Ivy-leaved (100=total damage to plant; 0=no damage to plant)
Summary of the method: as §2

[11] = system: redroot pigweed (Amaranthus retroflexus); experiment: Test G Post-Emergence Protocol; details: Amaranthus retroflexus, post-emergence, 312 h; for pest or weed control at 15.625 g/ha: 15.625 g ai/ha, evaluated after 13 days (100=total damage to plant; 0=no damage to plant), read-out: Pigweed, Redroot damage rating; for pest or weed control at 62.5 g/ha: 62.5 g ai/ha, read-out: Pigweed, Redroot damage rating (100=total damage to plant; 0=no damage to plant); for pest or weed control at 62.5 g/ha / pest or weed control at 250 g/ha: evaluated after 13 days; for pest or weed control at 250 g/ha: 250 g ai/ha, read-out: damage to plant, Pigweed, Redroot (100=total damage to plant; 0=no damage to plant)
Summary of the method: as §2

[12] = system: velvetleaf (Abutilon theophrasti); experiment: Test G Post-Emergence Protocol; details: Abutilon theophrasti, post-emergence, 312 h; for pest or weed control at 15.625 g/ha: 15.625 g ai/ha, evaluated after 13 days (100=total damage to plant; 0=no damage to plant), read-out: Velvetleaf damage rating; for pest or weed control at 62.5 g/ha: 62.5 g ai/ha, read-out: Velvetleaf damage rating (100=total damage to plant; 0=no damage to plant); for pest or weed control at 62.5 g/ha / pest or weed control at 250 g/ha: evaluated after 13 days; for pest or weed control at 250 g/ha: 250 g ai/ha, read-out: damage to plant, Velvetleaf (100=total damage to plant; 0=no damage to plant)
Summary of the method: as §2

SMILES	pest or weed control at 15.625 g/ha [1] [%]	pest or weed control at 62.5 g/ha [1] [%]	pest or weed control at 250 g/ha [1] [%]	plant injury at 15.625 g/ha (corn (Zea mays) [2]) [%]	plant injury at 62.5 g/ha (corn (Zea mays) [2]) [%]	plant injury at 250 g/ha (corn (Zea mays) [2]) [%]	pest or weed control at 15.625 g/ha [3] [%]	pest or weed control at 62.5 g/ha [3] [%]	pest or weed control at 250 g/ha [3] [%]	pest or weed control at 15.625 g/ha [4] [%]	pest or weed control at 62.5 g/ha [4] [%]	pest or weed control at 250 g/ha [4] [%]	pest or weed control at 15.625 g/ha [5] [%]	pest or weed control at 62.5 g/ha [5] [%]	pest or weed control at 250 g/ha [5] [%]	pest or weed control at 15.625 g/ha [6] [%]	pest or weed control at 62.5 g/ha [6] [%]	pest or weed control at 250 g/ha [6] [%]	pest or weed control at 15.625 g/ha [7] [%]	pest or weed control at 62.5 g/ha [7] [%]	other results
CN1C[C@@H](c2ccc(C(F)(F)F)cc2)[C@H](C(=O)Nc2nnnn2C)C1=O (racemic) [Compound 1618]	0	0	10	0	0	20	0	0	20	0	0	20	0	0	20	0	0	10	0	0	pest or weed control at 250 g/ha [7]: 0%; plant injury at 15.625 g/ha (corn (Zea mays) [8]): 0%; plant injury at 62.5 g/ha (corn (Zea mays) [8]): 0%; plant injury at 250 g/ha (corn (Zea mays) [8]): 0%; pest or weed control at 15.625 g/ha [9]: 0%; pest or weed control at 62.5 g/ha [9]: 0%; pest or weed control at 250 g/ha [9]: 0%; pest or weed control at 15.625 g/ha [10]: 0%; pest or weed control at 62.5 g/ha [10]: 0%; pest or weed control at 250 g/ha [10]: 0%; pest or weed control at 15.625 g/ha [11]: 0%; pest or weed control at 62.5 g/ha [11]: 0%; pest or weed control at 250 g/ha [11]: 0%; pest or weed control at 15.625 g/ha [12]: 0%; pest or weed control at 62.5 g/ha [12]: 0%; pest or weed control at 250 g/ha [12]: 0%
COc1c(Cl)ccc([C@H]2CNC(=O)[C@@H]2C(=O)Nc2cccc(F)n2)c1F (racemic) [Compound 1478]	0	0	30	0	0	10	0	0	40	0	0	0	0	0	0	0	0	0	10	40	pest or weed control at 250 g/ha [7]: 60%; plant injury at 15.625 g/ha (corn (Zea mays) [8]): 0%; plant injury at 62.5 g/ha (corn (Zea mays) [8]): 10%; plant injury at 250 g/ha (corn (Zea mays) [8]): 20%; pest or weed control at 15.625 g/ha [9]: 10%; pest or weed control at 62.5 g/ha [9]: 30%; pest or weed control at 250 g/ha [9]: 60%; pest or weed control at 15.625 g/ha [10]: 0%; pest or weed control at 62.5 g/ha [10]: 0%; pest or weed control at 250 g/ha [10]: 10%; pest or weed control at 15.625 g/ha [11]: 0%; pest or weed control at 62.5 g/ha [11]: 0%; pest or weed control at 250 g/ha [11]: 10%; pest or weed control at 15.625 g/ha [12]: 0%; pest or weed control at 62.5 g/ha [12]: 0%; pest or weed control at 250 g/ha [12]: 0%
CN1C[C@H](c2ccc(C(F)(F)F)cc2)[C@](C)(C(=O)Nc2cccc(F)c2F)C1=O (racemic) [Compound 1406]	0	0	0	0	0	0	0	0	0	0	0	0	0	0	0	0	0	0	0	0	pest or weed control at 250 g/ha [7]: 20%; plant injury at 15.625 g/ha (corn (Zea mays) [8]): 20%; plant injury at 62.5 g/ha (corn (Zea mays) [8]): 0%; plant injury at 250 g/ha (corn (Zea mays) [8]): 10%; pest or weed control at 15.625 g/ha [9]: 0%; pest or weed control at 62.5 g/ha [9]: 0%; pest or weed control at 250 g/ha [9]: 0%; pest or weed control at 15.625 g/ha [10]: 0%; pest or weed control at 62.5 g/ha [10]: 10%; pest or weed control at 250 g/ha [10]: 0%; pest or weed control at 15.625 g/ha [11]: 0%; pest or weed control at 62.5 g/ha [11]: 40%; pest or weed control at 250 g/ha [11]: 20%; pest or weed control at 15.625 g/ha [12]: 0%; pest or weed control at 62.5 g/ha [12]: 20%; pest or weed control at 250 g/ha [12]: 20%

— patent US12077503B2, “Substituted cyclic amides and their use as herbicides” (FMC CORPORATION, priority 2015, dated 2024)
